Measurements reported in US6376469B1, “Crystalline amrubicin hydrochloride” (Sumitomo Pharmaceuticals Company, Limited, priority 1997, dated 2002).

Assay: Preservation stability of crystalline amrubicin hydrochlorides (80° C., 24 hours, HPLC)
Assay type: physicochemical
Settings: for remaining amount (%): crystals kept at 80° C. for 24 hours, measured by high performance liquid chromatography, amount at the starting time defined as 100%, hydrochloride
Procedure: Preservation stability of crystalline amrubicin hydrochlorides
β-Type crystalline amrubicin hydrochloride obtained in Example 1 and α-type crystalline amrubicin hydrochloride obtained in Reference example 1 were each kept at a temperature of 80° C. for 24 hours. Thereafter, the remaining amount of crystals were measured using high performance liquid chromatography. The amount at the starting time is defined as 100%.

Row | SMILES | remaining amount (%) | thermal stability (comparison of crystal forms) (conclusion from Table 2, 80° C. for 24 hours)
1 | CC(=O)[C@]1(N)Cc2c(O)c3c(c(O)c2[C@@H](OC2CC(O)C(O)CO2)C1)C(=O)c1ccccc1C3=O.Cl (stereo partly drawn) [α-type crystalline, (7S,9S)-9-acetyl-9-amino-7-[(2-deoxy-β-D-erythro-pentapyranosyl)oxy]-7,8,9, 10-tetrahydro-6,11-dihydroxy-5,12-naphthacenedione hydrochloride, reference compound] | 92.2 | 
2 | CC(=O)[C@]1(N)Cc2c(O)c3c(c(O)c2[C@@H](OC2CC(O)C(O)CO2)C1)C(=O)c1ccccc1C3=O.Cl (stereo partly drawn) [β-type crystalline, (7S,9S)-9-acetyl-9-amino-7-[(2-deoxy-β-D-erythro-pentapyranosyl)oxy]-7,8,9, 10-tetrahydro-6,11-dihydroxy-5,12-naphthacenedione hydrochloride] | 100.4 | higher thermal stability than α-type crystalline amrubicin hydrochloride
